# Laboratory results reported in patent US10441588B2, “Methods and compositions for treating bacterial infection” (Curators of the University of Missouri, priority 2012, dated 2019).
# Entries after “also recorded” stand apart in the source; their conditions may differ.
# Legend:
# [1] = system: S. aureus biofilm; test: S. aureus biofilm inhibition, optical density, test/control; type: cell-based, Staphylococcus aureus; settings: Staphylococcus aureus, growth of biofilm test/control by optical density
# [2] = system: S. aureus; test: S. aureus growth inhibition, optical density, test/control; type: cell-based, Staphylococcus aureus; settings: Staphylococcus aureus, growth of bacteria test/control by optical density
# [3] = system: S. aureus RN6390 strain biofilm; test: microbe, parasite or virus in culture; type: cell-based; settings: for IC50: Staphylococcus aureus, read-out: IC50, inhibition of RN6390 biofilm formation
# [4] = system: S. aurues strain RN6390; test: S. aureus RN6390 bacterial growth; type: cell-based; settings: at 20 μM
# Procedure: (§1) These compounds were then tested on staphylococcus biofilm formation. […] The two compounds (CCG-203592 and CCG-205363) were tested on S. aurues strain RN6390, which is reported to be more prone to biofilm formation than Newman strain.
# [5] = system: S. aureus virulence factor genes; test: S. aureus virulence factor gene expression, real time RT-PCR; type: cell-based; settings: RN6390, 50 μM; ML, LL and S growth phase
# [6] = system: S. aureus Newman biofilm; test: S. aureus Newman biofilm formation in microtiter plates; type: cell-based
# Procedure: as §1
# [7] = system: P. aeruginosa; test: P. aeruginosa wound infection in DIO mice; type: in vivo; settings: for survival: female DIO mice, 10^8 CFU
# [8] = system: E. coli flagellin (fliC); test: microbe, parasite or virus in culture; type: cell-based
# [9] = system: S. aureus clinical strain NRS234; test: S. aureus pneumonia model; type: in vivo, Balb/C mice
# Procedure: S. aureus is one of the major causative agents of pneumonia. CCG-211790 was tested in a pneumonia model. Balb/C mice were intra-nasally infected with 10^7 CFU S. aureus clinical strain NRS234 and treated with either 0.15 μmol CCG-211790 or DMSO two hours after infection. The mice were then treated with CCG-211790 or DMSO (control) twice a day after the day of infection for three days. […] Mice were also infected with higher dose of bacteria at 10^9 CFU treated intraperitoneally (ip) with either 0.15 μmol CCG-211790, vancomycin, combination of CCG-21790 and vancomycin, or DMSO two hours after infection. The mice were then treated twice a day after the day of infection for three days.
# [10] = system: MRSA; test: MRSA skin punch wound infection in DIO mice; type: in vivo, diet induced obesity (DIO) mice; settings: 10^8 CFU MRSA; 60 μg/wound in ointment (6% silica in cod liver oil) vs ointment alone
# Excerpt: In this example, in vivo and in vitro efficacy for wound infection (against MRSA and P. aeruginosa) was investigated. Diabetic ulcer lesion is a major complication of people with diabetes and represents a form of chronic wounds. Bacteria can form biofilm in the lesions, which is recalcitrant to treatment. Therefore, diet induced obesity (DIO) mice were used as a model of obesity and insulin resistance diabetes to test the in vivo efficacy of CCG-211790 to fight wound infections.
# (§2) A skin punch wound was introduced to the DIO mice and infected with 10^8 CFU MRSA. Mice were then treated locally at the wound site with ointment containing CCG-211790 (60 μg/wound) in an ointment (6% silica in cod liver oil) or ointment alone. […] Furthermore, CCG-211790 protected mouse fibroblast cells (CCL-1) from MRSA cytoxicity in vitro (FIG. 13B).
# [11] = system: mouse fibroblast cells (CCL-1); test: MRSA cytotoxicity on mouse fibroblast cells in vitro; type: cell-based
# Procedure: as §2
# [12] = system: E. coli adhesion to human epithelial cells (Caco2); test: E. coli adhesion to Caco2 cells; type: cell-based; settings: Caco-2
# Procedure: FIGS. 15A and 15B show CCG-211790 (NV001) inhibited E. coli virulence. FIG. 15A is a western blot of fliC expression at different concentrations of CCG-211790 (NV001).
# CCG-211790 (NV001) and a number of structural analogs inhibited the expression of the flagellin gene (fliC) (FIG. 15A) and also the bacterial adhesion to human epithelial cells (Caco2) (FIG. 15B). As summarized in Table 5, the effect of compounds on E. coli flagellin expression was also tested by incubating compounds (5 and 25 μM) with E. coli for 6 hours, flagellin expression in supernatant (IVG-00601, 607) or cell pellet (IVG-00608-006014) was examined by western and quantified.
# [13] = system: E. coli STEC O157:H7; type: in vivo, mice
# [14] = system: A. baumannii (AYE) biofilm; test: A. baumannii open wound infection mouse model; type: in vivo, mice; settings: topical, 6 mg/ml in PEG, 100 μl daily
# Procedure: A topical formulation (6 mg/ml in Polyehylene glycol; PEG) was tested for its in vivo efficacy on the open wound infection mouse model.
# [15] = system: MRSA; test: MRSA growth
# [16] = system: P. aeruginosa; test: Ciprofloxacin potency against P. aeruginosa
# [17] = system: Acinetobacter baumannii; test: Vancomycin potency against Acinetobacter baumannii
# [18] = system: MRSA; test: MRSA response to antibiotics in presence of compound; settings: 50 μM CCG-211790
# [19] = system: S. aureus RN6390 strain biofilm; test: Biofilm formation on medical grade silicone sheet; type: cell-based
# [20] = system: S. aureus Newman strain; test: S. aureus lung infection model in mice; settings: intranasal S. aureus Newman, 3-4×10^8 CFU per mouse
# [21] = system: S. epidermis; test: S. epidermis growth inhibition, optical density, test/control; type: cell-based, Staphylococcus epidermidis; settings: for activity at 100 µM: Staphylococcus epidermidis, growth of bacteria test/control by optical density
# [22] = system: S. epidermis biofilm; test: S. epidermis biofilm inhibition, optical density, test/control; settings: for S. epidermis Biofilm inhibition 10 μM vs. (−) Control / activity at 100 µM: growth of biofilm test/control by optical density; for activity at 100 µM: Staphylococcus epidermidis, read-out: S. epidermis Biofilm inhibition 100 μM vs. (−) Control, 100 μM
# [23] = system: group A streptococcus (GAS); test: Group A streptococcus infection in mice; type: in vivo; settings: GAS 105-6 CFU per mouse
# Procedure: FIGS. 1A & 1B show the identification of a chemical series of compounds inhibiting group A streptococcus virulence. FIG. 1A) Microarray analysis of gene expression changes in MGAS2221 treated with CCG-102487 compared to DMSO. FIG. 1B) Effect of CCG-2979 on mice survival after infection with GAS (105-6 CFU per mouse).
# A number of small molecules that can inhibit SK expression without impeding bacterial growth were evaluated. Furthermore, these compounds can inhibit gene expression of a broad spectrum of streptococcal virulence factors (FIG. 1A).
smiles,measurement,setting,value
C=CCSc1nc2c(c(=O)n1CC=C)C(C)(C)Cc1cc(OC)ccc1-2 [CCG-205363],activity at 10 µM,[1],63.1%
same,activity at 100 µM,[1],44%
same,activity at 100 µM,[2],95%
same,"IC50, inhibition of S. aureus biofilm formation",[3],low μM range
same,IC50,[3],6.96 ± 0.76 µM
same,bacteria growth,[4],without inhibiting bacteria growth
same,S. aureus virulence factor gene expression,[5],inhibited gene expression
same,S. aureus Newman biofilm formation,[6],consistent inhibition
"CN[C@H](CC(C)C)C(=O)N[C@H]1C(=O)N[C@@H](CC(N)=O)C(=O)N[C@H]2C(=O)N[C@H]3C(=O)N[C@H](C(=O)N[C@H](C(=O)O)c4cc(O)cc(O)c4-c4cc3ccc4O)[C@H](O)c3ccc(c(Cl)c3)Oc3cc2cc(c3O[C@@H]2O[C@H](CO)[C@@H](O)[C@H](O)[C@H]2O[C@H]2C[C@](C)(N)[C@H](O)[C@H](C)O2)Oc2ccc(cc2Cl)[C@H]1O [vancomycin, reference compound]",survival,[7]; vancomycin treatment alone,40%
"COc1ccc2c(c1)-c1nc(SCC(F)(F)F)n(C)c(=O)c1C(C)(C)C2 [CCG-211790, 9-methoxy-3,5,5-trimethyl-2-((2,2,2-trifluoroethyl)thio)-5,6-dihydrobenzo[h]quinazolin-4(3H)-one]",activity at 5 µM,"[1]; 5 μM, read-out: S. aureus Biofilm Inhibition 5 μM vs. (−) Control",38.1%
same,activity at 50 µM,"[1]; 50 μM, read-out: S. aureus Biofilm Inhibition 50 μM vs. (−) Control",32.6%
same,activity at 5 µM,"[8]; Escherichia coli, 6 h, read-out: E. coli flagellin production, Relative Level vs. Control, 5 μM",56.9%
same,activity at 25 µM,"[8]; Escherichia coli, 6 h, read-out: E. coli flagellin production, Relative Level vs. Control, 25 μM",15.4%
same,expression of the flagellin gene (fliC),"[8]; western blot, different concentrations",inhibited
same,bacterial counts in both lungs and spleens,"[9]; 10^7 CFU intranasal, 0.15 μmol, twice a day for three days, vs DMSO",Significant reduction
same,"protection of hosts (survival), monotherapy","[9]; 10^9 CFU, 0.15 μmol ip",Significant protection
same,"survival rate, combination with vancomycin","[9]; 10^9 CFU, combination of vancomycin and CCG-211790",improved the survival rate
same,skin lesion size,[10],reduce the skin lesion size
same,protection of CCL-1 cells from MRSA cytoxicity,[11],protected
same,survival,[7]; 12 mg/kg CCG-211790 oral with 10 mg/kg vancomycin ip,100%
same,skin lesion size,"[7]; male and female DIO mice, with vancomycin vs only vancomycin",reduced
same,bacterial adhesion to human epithelial cells (Caco2),[12],inhibited
same,survival,"[13]; […], 10 mg/kg ip twice a day",55.6%
same,infection symptoms and survival,"[13]; mouse, in vivo",improved infection symptoms and survival
same,A. baumannii infected wound lesion size,[14],reduced
same,effect on bacteria growth,[15],little to no effect
same,ciprofloxacin potency against P. aeruginosa,[16],enhanced
same,potency of vancomycin against Acinetobacter baumannii,[17],enhanced the potency
same,"antibiotic potency against MRSA (amoxicillin, vancomycin, clindamycin, tetracycline, erythromycin)",[18],enhanced the antibiotic potency
C=CCn1c(SCC)nc2c(c1=O)C(C)(C)Cc1cc(OC)ccc1-2 [CCG-203592],activity at 10 µM,[1],40.2%
same,activity at 100 µM,[1],23%
same,activity at 100 µM,[2],110%
same,"IC50, inhibition of S. aureus biofilm formation",[3],low μM range
same,IC50,[3],2.42 ± 0.14 µM
same,bacteria growth,[4],without inhibiting bacteria growth
same,S. aureus virulence factor gene expression,[5],down regulated; also recorded: inhibited gene expression
same,biofilm formation on the surface of silicone sheet,[19],decreased biofilm formation
same,S. aureus Newman biofilm formation,[6],consistent inhibition
same,protection of mice in S. aureus lung infection model,[20],in vivo efficacy in protecting mice
"C=CCn1c(SCCOC)nc2c(c1=O)C1(CCNCC1)Cc1ccccc1-2 [CCG-205447, 3-Allyl-2-((2-methoxyethyl)thio)-3H-spiro[benzo[h]quinazoline-5,4′-piperidin]-4(6H)-one]",activity at 100 µM,[21],104%
same,activity at 10 µM,[1],110%
same,activity at 100 µM,[2],90%
same,S. epidermis Biofilm inhibition 10 μM vs. (−) Control,[22],0.936
"COCCOCCOc1nc(SCCOC)nc2c1C(C)(C)Cc1ccccc1-2 [CCG-204033, 4-(2-(2-Methoxyethoxy)ethoxy)-2-((2-methoxyethyl)thio)-5,5-dimethyl-5,6-dihydrobenzo[h]-quinazoline]",activity at 100 µM,[21],103%
same,activity at 100 µM,[1],59.9%
same,activity at 100 µM,[2],83.8%
same,activity at 100 µM,[22],75.6%
C=CCn1c(SCC)nc2c(c1=O)C(C)(C)Cc1cc(OCCN3CCOCC3)ccc1-2 [CCG-205427],activity at 100 µM,[21],98%
same,activity at 10 µM,[1],73.4%
same,activity at 100 µM,[2],92.8%
same,activity at 100 µM,[22],76.6%
C=CCn1c(NCC)nc2c(c1=O)C1(CCCCC1)Cc1ccccc1-2 [CCG-203043],S. epidermidis bacterial growth,[21]; RP62A strain,without inhibition of bacterial growth
same,activity at 100 µM,[1],43.5%
same,activity at 100 µM,[2],70%
same,S. epidermis Biofilm inhibition 10 μM vs. (−) Control,[22],0.169
same,S. epidermidis biofilm formation,"[22]; RP62A strain, microtiter plate",strong inhibition
same,activity at 100 µM,[22],45%
C=CCn1c(NCC)nc2c(c1=O)C(C)(C)Cc1ccccc1-2 [CCG-203804],activity at 100 µM,[21],103%
same,activity at 100 µM,[1],10.3%
same,activity at 100 µM,[2],66.2%
same,S. epidermis Biofilm inhibition 10 μM vs. (−) Control,[22],0.858
C=CCn1c(SCCCC)nc2c(c1=O)C1(CCCCC1)Cc1ccccc1-2 [CCG-2979],protection of mice against group A streptococcal infection (survival),[23],capable of protecting mice
